Test results from BindingDB's records for patent US20240043440 (Case Western Reserve University, 2024).

Biological target: T1, 15-hydroxyprostaglandin dehydrogenase [NAD(+)] (Homo sapiens, UniProt P15428)
T1 sequence (P15428 whole entry): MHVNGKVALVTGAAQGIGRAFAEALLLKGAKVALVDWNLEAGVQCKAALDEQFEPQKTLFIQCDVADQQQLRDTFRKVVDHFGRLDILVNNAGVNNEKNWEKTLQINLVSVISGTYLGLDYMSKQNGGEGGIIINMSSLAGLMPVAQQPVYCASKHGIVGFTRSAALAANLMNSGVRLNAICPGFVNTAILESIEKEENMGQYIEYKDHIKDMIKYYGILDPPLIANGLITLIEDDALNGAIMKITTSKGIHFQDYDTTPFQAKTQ
Assay: In vitro Assay (1 nM)
Method: Each compound for inhibiting enzymatic activity of recombinant 15-PGDH (1 nM) in an in vitro assay.

SMILES | IC50 [nM]
CCOCC[S+]([O-])c1sc2nc(-c3nccs3)cc(-c3cncn3C)c2c1N (stereo not drawn) [US20240043440, Example 31] | 1.8
Cn1cncc1-c1cc(-c2nccs2)nc2sc([S+]([O-])C3CCCC3)c(N)c12 (stereo not drawn) [US20240043440, Example 32] | 1.6
Cn1cncc1-c1cc(-c2nccs2)nc2sc([S+]([O-])C3CCCCC3)c(N)c12 (stereo not drawn) [US20240043440, Example 33] | 1.6
CCOCC[S+]([O-])c1sc2nc(-c3nccs3)cc(-c3cnc(C)n3C)c2c1N (stereo not drawn) [US20240043440, Example 34] | 3.1
Cc1ncc(-c2cc(-c3nccs3)nc3sc([S+]([O-])CC(C)C)c(N)c23)n1C (stereo not drawn) [US20240043440, Example 35] | 3.6
COCC[S+]([O-])c1sc2nc(-c3nccs3)cc(-c3cncn3C)c2c1N (stereo not drawn) [US20240043440, Example 36] | 1.5
COCCC[S+]([O-])c1sc2nc(-c3nccs3)cc(-c3cncn3C)c2c1N (stereo not drawn) [US20240043440, Example 37] | 1.8
CCCC[S+]([O-])c1sc2nc(-c3ccccn3)cc(-c3cnc(C)n3C)c2c1N (stereo not drawn) [US20240043440, Example 40] | 2.4
CCCC[S+]([O-])c1sc2nc(-c3ncccn3)cc(-c3ccccc3)c2c1N (stereo not drawn) [US20240043440, Example 44] | 1.7
CCCC[S+]([O-])c1sc2nc(-c3ncccc3F)cc(-c3cnc(C)n3C)c2c1N (stereo not drawn) [US20240043440, Example 45] | 2.2
COCC[S+]([O-])c1sc2nc(-c3cccnc3)cc(-c3cncn3C)c2c1N (stereo not drawn) [US20240043440, Example 49] | 1.8
COCCC[S+]([O-])c1sc2nc(-c3cccnc3)cc(-c3cncn3C)c2c1N (stereo not drawn) [US20240043440, Example 50] | 1.4
CCCC[S+]([O-])c1sc2nc(-c3cncnc3)cc(-c3cnc(C4CC4)n3C)c2c1N (stereo not drawn) [US20240043440, Example 53] | 2.6
CCCC[S+]([O-])c1sc2nc(-c3cnccc3C)cc(-c3cnc(C)n3C)c2c1N (stereo not drawn) [US20240043440, Example 56] | 2.2
CCCC[S+]([O-])c1sc2nc(-c3cnc(NC)nc3)cc(-c3ccccc3)c2c1N (stereo not drawn) [US20240043440, Example 60] | 1.4
CCCC[S+]([O-])c1sc2nc(-c3ccc(N)nc3)cc(-c3ccccc3)c2c1N (stereo not drawn) [US20240043440, Example 62] | 1.5
CCCC[S+]([O-])c1sc2nc(-c3cnc(N(C)C)nc3)cc(-c3ccccc3)c2c1N (stereo not drawn) [US20240043440, Example 63] | 1.7

Now from value to compound:

IC50 [nM] | SMILES
1.4 | CCCC[S+]([O-])c1sc2nc(-c3cccnc3)cc(-c3cnc(C)n3C)c2c1N (stereo not drawn) [US20240043440, Example 38]
1.2 | CCCC[S+]([O-])c1sc2nc(-c3cncnc3)cc(-c3cnc(C)n3C)c2c1N (stereo not drawn) [US20240043440, Example 39]
1.1 | CCCC[S+]([O-])c1sc2nc(-c3cccnc3)cc(-c3cncn3C)c2c1N (stereo not drawn) [US20240043440, Example 43]
1.1 | CCCC[S+]([O-])c1sc2nc(-c3ccncn3)cc(-c3ccccc3)c2c1N (stereo not drawn) [US20240043440, Example 47]
1 | CCCC[S+]([O-])c1sc2nc(-c3cccnc3)cc(-c3nccs3)c2c1N (stereo not drawn) [US20240043440, Example 51]
0.82 | CCCC[S+]([O-])c1sc2nc(-c3cccnc3)cc(-c3cccnc3)c2c1N (stereo not drawn) [US20240043440, Example 54]
1 | CCCC[S+]([O-])c1sc2nc(-c3cccnc3)cc(-c3ccccc3F)c2c1N (stereo not drawn) [US20240043440, Example 55]
1.1 | CCCC[S+]([O-])c1sc2nc(-c3cccnc3)cc(-c3cccc(C#N)c3)c2c1N (stereo not drawn) [US20240043440, Example 57]
1.2 | CCCC[S+]([O-])c1sc2nc(-c3cccnc3)cc(-c3ccccn3)c2c1N (stereo not drawn) [US20240043440, Example 58]
0.91 | CCCC[S+]([O-])c1sc2nc(-c3cccnc3)cc(-c3ccc(C#N)cc3)c2c1N (stereo not drawn) [US20240043440, Example 59]
1.1 | CCCC[S+]([O-])c1sc2nc(-c3cnc(N)nc3)cc(-c3ccc(F)cc3)c2c1N (stereo not drawn) [US20240043440, Example 61]
